The record followed here is article PMC2213500 (The Journal of Experimental Medicine, 2000).

For one experiment, the target named is wtDR1 (Homo sapiens, UniProt P01903+P01911, A100R/D57E/F55L/F60I/F76Y/I96L/L162R/M171V/P40L/Q125E/R42F/V115G/Y59C). Type of experiment: binding.
For experiment [1], the target named is soluble wild-type HLA-DR1 (empty, no added peptide) (human). The experiment can be described thus: intrinsic tryptophan fluorescence.

Chain of soluble HLA-DM (P28067 27-233): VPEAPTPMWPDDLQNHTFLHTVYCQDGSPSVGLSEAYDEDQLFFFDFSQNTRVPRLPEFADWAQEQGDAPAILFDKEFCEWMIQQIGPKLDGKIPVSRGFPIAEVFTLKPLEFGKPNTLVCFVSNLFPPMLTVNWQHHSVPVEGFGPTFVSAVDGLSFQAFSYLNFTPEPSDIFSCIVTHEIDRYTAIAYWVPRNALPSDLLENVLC
Chain of soluble HLA-DM (P28068 19-218): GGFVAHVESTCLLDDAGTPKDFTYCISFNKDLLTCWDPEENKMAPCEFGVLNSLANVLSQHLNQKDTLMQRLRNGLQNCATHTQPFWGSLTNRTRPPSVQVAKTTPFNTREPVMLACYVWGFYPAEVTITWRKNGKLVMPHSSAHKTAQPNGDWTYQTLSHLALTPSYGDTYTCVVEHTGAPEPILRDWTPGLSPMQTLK

Turning to CLSPFPFDL, the “DR1 binding of control peptide” value on wtDR1 is given as “non–DR1-binding”.
Take “soluble HLA-DM (from UniProt P28067;P28068) (complex)”: in experiment [1], the increase of tryptophan fluorescence on mixing lay within 10 to 12%.
